According to the NIST ThermoML archive (doi:10.1021/je900525f):

Legend:
[1] = 101 kPa, Liquid; for viscosity: Capillary tube (Ostwald / Ubbelohde) method; for speed of sound: Pulse-echo method
[2] = xn = mol fraction of the nth substance listed; conditions: 101 kPa, Liquid; for viscosity: Capillary tube (Ostwald / Ubbelohde) method; for speed of sound: Pulse-echo method

CCOC(C)=O [ethyl acetate]
[1]
Conditions | mass density [kg/m3] | speed of sound [m/s] | viscosity [mPa·s]
303.15 K | 888.9 | 1118.5 | 0.379
308.15 K | 882.6 | 1097.8 | 0.361
313.15 K | 875.9 | 1081.2 | 0.344

N#CCc1ccccc1 [benzeneacetonitrile] + CCOC(=O)CCl
[2], x1 = 1
Conditions | mass density [kg/m3] | speed of sound [m/s] | viscosity [mPa·s]
303.15 K | 1008.8 | 1519.2 | 1.761
308.15 K | 1004.1 | 1512.9 | 1.602
313.15 K | 999.5 | 1503.4 | 1.489

CCOC(=O)CCl [ethyl chloroethanoate]
[1]
Conditions | mass density [kg/m3] | speed of sound [m/s] | viscosity [mPa·s]
303.15 K | 1139.3 | 1229.4 | 0.9692
308.15 K | 1132.5 | 1212.4 | 0.8979
313.15 K | 1125.9 | 1197.6 | 0.8341

N#CCc1ccccc1 [benzeneacetonitrile]
[1]
Conditions | mass density [kg/m3] | speed of sound [m/s] | viscosity [mPa·s]
303.15 K | 1008.8 | 1519.2 | 1.761
308.15 K | 1004.1 | 1512.9 | 1.602
313.15 K | 999.5 | 1503.4 | 1.489

N#CCc1ccccc1 [benzeneacetonitrile] + CCOC(=O)CC#N
[2], x1 = 1
Conditions | mass density [kg/m3] | speed of sound [m/s] | viscosity [mPa·s]
303.15 K | 1008.8 | 1519.2 | 1.761
308.15 K | 1004.1 | 1512.9 | 1.602
313.15 K | 999.5 | 1503.4 | 1.489

CCOC(=O)CC#N [ethyl cyanoacetate]
[1]
Conditions | mass density [kg/m3] | speed of sound [m/s] | viscosity [mPa·s]
303.15 K | 1051.4 | 1396.9 | 2.186
308.15 K | 1046.5 | 1384.8 | 1.962
313.15 K | 1040.8 | 1367.7 | 1.77

CCOC(C)=O [ethyl acetate] + N#CCc1ccccc1
[2], x2 = 0
Conditions | mass density [kg/m3] | speed of sound [m/s] | viscosity [mPa·s]
303.15 K | 888.9 | 1118.5 | 0.379
308.15 K | 882.6 | 1097.8 | 0.361
313.15 K | 875.9 | 1081.2 | 0.344
